Assay results: ChEMBL document CHEMBL1201862, “PubChem BioAssay data set” (2004)
Calls of active or inactive are those of the source.

Assays:
[1] = Luminescence Cell-Based Dose Confirmation HTS to Identify Activators of 5'UTR Stem-Loop Driven Alpha-Synuclein mRNA Translation in H4 Neuroglioblastoma Cells. [Related pubchem assays: 1829 (Project Summary), 1814 (Primary HTS)]; format: functional
[2] = tested on: H4; experiment: Luminescence Cell-Based Dose Response HTS to Identify Activators of 5'UTR Stem-Loop Driven Prion Protein mRNA Translation in H4 Neuroglioblastoma Cells. [Related pubchem assays: 1829 (Project Summary), 1814 (Primary HTS)]; format: functional; conditions: Homo sapiens
[3] = Luminescence Cell-Based Dose Response HTS to Identify Activators of Luciferase Translation or Activity in H4 […] Cells. [Related pubchem assays: 1829 (Project Summary), 1814 (Primary HTS)]; format: functional
[4] = target: Cytochrome P450 2C19 (Homo sapiens, UniProt P33261); experiment: Cytochrome panel assay with activity outcomes. Panel member name: p450-cyp2c19 Compounds with AC50 equal or less than 10 uM are considered active; format: functional; conditions: read-out: AC50
[5] = target: Cytochrome P450 2C9 (Homo sapiens, UniProt P11712)
[6] = target: T1, Heat shock factor protein 1 (Mus musculus, UniProt P38532); experiment: enhancement of HSF1-driven luciferase signal – cell-based, NIH3T3, luminescence, dose retest, confirmation (AID 435004); format: functional;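 also: stress induced by proteasome inhibitor MG132 added 30 min after compound; luciferase reporter driven by HSF1 response element in NIH3T3 cells; actives raise luminescence as potentiators of the MG132 stress response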
T1 sequence (P38532 whole entry): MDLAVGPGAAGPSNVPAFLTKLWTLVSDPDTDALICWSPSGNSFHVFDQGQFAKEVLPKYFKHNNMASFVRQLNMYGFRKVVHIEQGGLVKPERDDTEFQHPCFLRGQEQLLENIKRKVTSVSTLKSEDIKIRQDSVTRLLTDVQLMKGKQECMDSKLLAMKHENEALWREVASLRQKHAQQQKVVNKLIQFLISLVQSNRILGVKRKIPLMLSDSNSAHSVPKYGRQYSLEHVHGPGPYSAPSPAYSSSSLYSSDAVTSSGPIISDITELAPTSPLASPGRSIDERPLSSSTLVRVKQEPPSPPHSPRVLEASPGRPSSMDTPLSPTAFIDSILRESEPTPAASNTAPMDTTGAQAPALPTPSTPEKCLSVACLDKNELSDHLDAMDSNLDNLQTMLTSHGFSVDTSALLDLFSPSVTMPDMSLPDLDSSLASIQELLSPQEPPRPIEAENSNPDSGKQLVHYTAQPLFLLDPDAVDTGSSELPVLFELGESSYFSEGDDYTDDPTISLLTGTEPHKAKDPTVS

[7] = target: T2, Rac GTPase-activating protein 1 (Homo sapiens, UniProt Q9H0H5); experiment: blockers of MgcRacGAP-driven Rac1 GTP hydrolysis – biochemical, ADP Hunter fluorescence, primary and confirmatory, confirmation (AID 624330); format: functional
T2 sequence (Q9H0H5 whole entry): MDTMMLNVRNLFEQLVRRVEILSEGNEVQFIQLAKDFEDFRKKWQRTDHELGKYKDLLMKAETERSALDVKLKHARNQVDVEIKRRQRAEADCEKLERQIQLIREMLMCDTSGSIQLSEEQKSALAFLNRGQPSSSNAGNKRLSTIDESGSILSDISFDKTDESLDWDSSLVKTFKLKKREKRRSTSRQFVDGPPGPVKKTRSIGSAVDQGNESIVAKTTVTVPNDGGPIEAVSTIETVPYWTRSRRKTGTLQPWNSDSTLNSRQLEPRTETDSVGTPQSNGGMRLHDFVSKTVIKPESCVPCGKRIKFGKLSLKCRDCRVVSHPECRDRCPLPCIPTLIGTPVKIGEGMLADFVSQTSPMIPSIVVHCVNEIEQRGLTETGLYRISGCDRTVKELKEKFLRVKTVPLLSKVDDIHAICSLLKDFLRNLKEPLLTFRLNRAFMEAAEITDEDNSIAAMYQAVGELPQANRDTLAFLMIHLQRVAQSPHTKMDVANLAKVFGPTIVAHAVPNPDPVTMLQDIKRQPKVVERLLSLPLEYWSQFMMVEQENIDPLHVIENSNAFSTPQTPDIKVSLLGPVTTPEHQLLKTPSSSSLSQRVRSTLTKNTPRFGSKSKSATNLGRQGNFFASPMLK

[8] = viability of uninfected HEp-2 cells – cell-based, HTS, cytotoxicity control for RSV inhibitor project, dose response (AID 2410); format: functional; conditions: human respiratory syncytial virus
[9] = target: Cytochrome P450 2D6 (Homo sapiens, UniProt P10635);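 also: CYP2D6 member of a cytochrome P450 panel assay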
[10] = target: T3, Cytochrome P450 1A2 (Homo sapiens, UniProt P05177);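 also: PubChem cytochrome P450 panel assay, CYP1A2 panel member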
T3 sequence (P05177 whole entry): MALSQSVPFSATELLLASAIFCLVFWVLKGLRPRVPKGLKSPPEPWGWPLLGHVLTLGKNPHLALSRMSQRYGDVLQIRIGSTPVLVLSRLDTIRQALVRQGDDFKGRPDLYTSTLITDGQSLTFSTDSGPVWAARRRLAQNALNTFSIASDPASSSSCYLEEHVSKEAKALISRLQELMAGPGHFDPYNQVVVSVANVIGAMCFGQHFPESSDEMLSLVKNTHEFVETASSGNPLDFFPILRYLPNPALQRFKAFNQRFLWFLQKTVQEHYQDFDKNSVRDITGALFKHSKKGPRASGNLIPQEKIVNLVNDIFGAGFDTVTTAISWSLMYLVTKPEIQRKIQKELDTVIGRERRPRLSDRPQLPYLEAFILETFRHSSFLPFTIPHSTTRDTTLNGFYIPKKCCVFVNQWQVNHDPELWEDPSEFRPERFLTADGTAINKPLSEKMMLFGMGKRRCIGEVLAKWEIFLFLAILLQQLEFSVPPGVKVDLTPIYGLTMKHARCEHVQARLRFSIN

[11] = target: Cytochrome P450 3A4 (Homo sapiens, UniProt P08684);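 also: CYP3A4 tested as one member of a cytochrome P450 panel screen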
Sequence of Cytochrome P450 3A4 (P08684 whole entry): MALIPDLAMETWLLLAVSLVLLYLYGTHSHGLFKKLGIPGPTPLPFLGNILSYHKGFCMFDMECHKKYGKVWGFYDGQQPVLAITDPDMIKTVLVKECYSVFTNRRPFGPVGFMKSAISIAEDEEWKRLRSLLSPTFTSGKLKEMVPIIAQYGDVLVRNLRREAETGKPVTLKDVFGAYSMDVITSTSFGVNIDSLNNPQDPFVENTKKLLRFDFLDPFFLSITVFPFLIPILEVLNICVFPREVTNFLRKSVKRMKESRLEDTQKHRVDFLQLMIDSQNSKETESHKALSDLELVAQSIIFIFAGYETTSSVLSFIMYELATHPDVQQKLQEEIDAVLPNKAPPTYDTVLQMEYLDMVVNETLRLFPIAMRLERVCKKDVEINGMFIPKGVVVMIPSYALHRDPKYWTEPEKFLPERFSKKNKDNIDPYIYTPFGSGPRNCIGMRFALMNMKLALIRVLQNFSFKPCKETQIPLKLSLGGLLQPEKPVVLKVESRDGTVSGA

Sequence of Cytochrome P450 2C9 (P11712 whole entry): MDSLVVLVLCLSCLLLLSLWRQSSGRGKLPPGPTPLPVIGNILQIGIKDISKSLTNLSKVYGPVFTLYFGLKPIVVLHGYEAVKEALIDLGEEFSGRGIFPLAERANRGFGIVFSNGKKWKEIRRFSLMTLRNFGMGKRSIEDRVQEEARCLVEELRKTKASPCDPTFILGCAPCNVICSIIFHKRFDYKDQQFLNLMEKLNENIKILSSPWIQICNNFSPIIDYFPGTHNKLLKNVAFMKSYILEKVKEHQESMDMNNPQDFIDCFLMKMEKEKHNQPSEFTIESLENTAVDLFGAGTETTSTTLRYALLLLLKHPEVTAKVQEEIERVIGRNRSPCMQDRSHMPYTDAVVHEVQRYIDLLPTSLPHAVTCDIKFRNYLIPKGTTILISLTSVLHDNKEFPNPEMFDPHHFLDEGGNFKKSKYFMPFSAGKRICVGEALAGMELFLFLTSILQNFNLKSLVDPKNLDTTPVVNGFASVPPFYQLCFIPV
Sequence of Cytochrome P450 2C19 (P33261 whole entry): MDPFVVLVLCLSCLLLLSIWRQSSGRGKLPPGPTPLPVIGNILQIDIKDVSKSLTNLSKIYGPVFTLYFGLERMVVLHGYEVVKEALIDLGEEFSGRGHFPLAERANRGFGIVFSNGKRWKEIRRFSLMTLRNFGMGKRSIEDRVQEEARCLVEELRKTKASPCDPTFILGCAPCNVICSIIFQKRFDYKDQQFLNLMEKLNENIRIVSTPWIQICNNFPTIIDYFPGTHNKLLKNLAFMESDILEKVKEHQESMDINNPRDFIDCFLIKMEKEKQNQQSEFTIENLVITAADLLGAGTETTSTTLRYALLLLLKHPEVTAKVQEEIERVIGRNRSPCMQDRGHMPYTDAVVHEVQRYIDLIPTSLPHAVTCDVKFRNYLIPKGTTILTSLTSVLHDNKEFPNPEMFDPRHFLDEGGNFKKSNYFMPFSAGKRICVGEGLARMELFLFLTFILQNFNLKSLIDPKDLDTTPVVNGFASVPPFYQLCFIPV
Sequence of Cytochrome P450 2D6 (P10635 whole entry): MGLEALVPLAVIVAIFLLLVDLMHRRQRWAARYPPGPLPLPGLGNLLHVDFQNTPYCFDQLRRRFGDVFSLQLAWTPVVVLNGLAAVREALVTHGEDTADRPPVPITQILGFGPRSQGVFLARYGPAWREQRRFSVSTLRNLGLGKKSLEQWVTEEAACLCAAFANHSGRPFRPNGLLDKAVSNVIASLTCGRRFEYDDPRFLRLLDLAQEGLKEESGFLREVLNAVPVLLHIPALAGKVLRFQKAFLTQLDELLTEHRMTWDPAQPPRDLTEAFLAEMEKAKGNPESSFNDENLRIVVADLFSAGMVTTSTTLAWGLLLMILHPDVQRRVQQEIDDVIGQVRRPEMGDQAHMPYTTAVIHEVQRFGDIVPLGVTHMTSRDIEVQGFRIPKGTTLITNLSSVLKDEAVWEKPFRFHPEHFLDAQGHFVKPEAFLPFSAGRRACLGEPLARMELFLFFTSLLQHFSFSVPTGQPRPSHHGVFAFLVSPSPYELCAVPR

CN1CCN(CCCNC(=O)c2cc3c(=O)n(C)c4ccccc4c3s2)CC1
EC50 [1]: > 120 µM (not active) | EC50 [2]: > 120 µM (not active) | EC50 [3]: 11.7 µM (active)

CCc1nnc(NC(=O)C2CCN(C(=O)NC3CCCCC3)CC2)s1
AC50 [4]: 0.158 µM (inconclusive) | AC50 [5]: 20 µM (inconclusive)

CCOc1ccc(/C=C2\CCC(C3CCCC3)C2=O)cc1 (stereo not drawn)
EC50 [2]: > 120 µM (not active) | EC50 [3]: > 120 µM (not active)

Cc1cccc(-c2cccc(NC(=O)C3CCCN(C(=O)c4cccnc4)C3)c2)c1 (stereo not drawn)
EC50 [6]: > 260 µM (inactive)

O=C1CC(c2ccccc2)CC(O)=C1/C=N/c1ccc(O)cc1 (stereo not drawn)
IC50 [7]: 26 µM (active)

COc1cc(-c2c(-c3ccsc3)sc3ccccc23)cc(OC)c1OC
CC50 [8]: 33.7 µM (active)

N=C(NOC(=O)c1cc(Cl)ccc1Cl)c1ccncc1
EC50 [1]: 9.04 µM (active) | EC50 [2]: 28.1 µM (active) | EC50 [3]: 1.87 µM (active)

COc1ccccc1CNCCc1cccc(Cl)c1
IC50 [7]: 135 µM (active)

N#Cc1cnc2sc3ccccc3n2c1=N
EC50 [1]: 15.9 µM (active) | EC50 [2]: 11.7 µM (active) | EC50 [3]: 10.6 µM (active)

C=C(CC1([C@@H](NP(=O)(c2ccccc2)c2ccccc2)[C@H]2C[C@@H]2CCN(C(=O)OCC)S(=O)(=O)c2ccc(C)cc2)CC1)c1ccccc1
AC50 [4]: 1.26 µM (inconclusive) | AC50 [5]: 5.01 µM (inconclusive)

OCCCN=C(S)Nc1ccc(Nc2ccccc2)cc1
IC50 [7]: 88 µM (active)

CC(C)(C)N(NS(=O)(=O)c1ccc(F)cc1)c1ccccc1
EC50 [6]: > 260 µM (inactive)

CCc1nc2c(sc3nc4c(cc32)COC(C)(C)C4)c(=O)n1Cc1ccco1
EC50 [6]: > 260 µM (inactive)

CCOc1cc(/C=C2/SC(=S)N(CC3CCCO3)C2=O)ccc1O (stereo not drawn)
EC50 [6]: > 260 µM (inactive)

C[C@H](NC(=O)c1[nH]cnc1C(=O)N[C@@H](Cc1ccccc1)C(=O)OCc1ccccc1)C(=O)OC(C)(C)C
CC50 [8]: 24.8 µM (active)

CC(Cc1ccccc1)/[N+]([O-])=C\c1ccc(C(F)(F)F)cc1 (stereo not drawn)
EC50 [1]: 1.2 µM (active) | EC50 [2]: 4.53 µM (active) | EC50 [3]: 6.29 µM (active)

CCc1ccc(NC(=O)C2CCN(S(=O)(=O)c3c(C)nc(O)nc3O)CC2)cc1
AC50 [4]: 11.2 µM (inconclusive)

N#Cc1ccc(Oc2nc(C(N)=O)cc(-c3ccccc3)n2)cc1
AC50 [4]: 25.1 µM (inconclusive)

N#Cc1ccc(S(=O)(=O)N2CCCN(c3nc4ccc(Cl)cc4s3)CC2)cc1
CC50 [8]: > 50 µM (active)

COc1ccccc1OCC#CCn1ccnc1
IC50 [7]: 160 µM (active)

CCOC(=O)Nc1ccc(S(=O)(=O)NCc2ccccc2)cc1
AC50 [4]: 2.24 µM (inconclusive) | AC50 [5]: 5.62 µM (inconclusive) | AC50 [9]: 14.1 µM (inconclusive)

O=c1c(Cl)cc(Cl)nn1-c1ccccc1
EC50 [6]: 24.7 µM (active)

COC(=O)c1sccc1NC(=O)c1cc(-c2ccc(C)cc2)nc2ccccc12
AC50 [4]: 10 µM (inconclusive) | AC50 [10]: 14.1 µM (inconclusive)

Cc1ccc(-n2nc3c(=O)n(CCCC(=O)NCc4ccccc4C)nc(C)c3c2C)cc1
CC50 [8]: > 50 µM (active)

COc1ccc(CCNC(=O)C2CCCN(Cc3nc(-c4ccccc4C)oc3C)C2)cc1OC (stereo not drawn)
EC50 [6]: > 260 µM (inactive)

O=C1[C@@H]2Cc3c([nH]c4ccccc34)C(c3ccc([N+](=O)[O-])cc3)N2C(=O)CN1C1CC1 (stereo partly drawn)
EC50 [6]: > 260 µM (inactive)

Cc1ccccc1CN1CCN(CC(=O)NCCCN2CCN(c3ccc(F)cc3)CC2)C1=O
AC50 [4]: 11.2 µM (inconclusive) | AC50 [5]: 12.6 µM (inconclusive) | AC50 [11]: 25.1 µM (inconclusive)

COc1cc2c(c(OC)c1CC=C(C)C)C[C@H](c1ccc(O)cc1O)CO2 [GLYASPERIN D]
CC50 [8]: 15.3 µM (active)

COc1ccc(C(=O)N/N=C/c2ccc(N3CCOCC3)s2)cc1OC
IC50 [7]: 110 µM (active)

CC(C)(C)c1ccc(C(=O)NCc2ccco2)cc1
EC50 [1]: 20.9 µM (active) | EC50 [2]: 13.7 µM (active) | EC50 [3]: 31 µM (active)

CN1CCN(c2ccc(NC(=O)COc3ccccc3)cc2Cl)CC1
EC50 [1]: 0.214 µM (active) | EC50 [2]: 66.9 µM (active) | EC50 [3]: 0.229 µM (active)

CCOC(=O)N/N=C/c1ccccc1F
AC50 [4]: 35.5 µM (inconclusive)

COc1cccc(Nc2ncc3ncc(=O)n(Cc4cccs4)c3n2)c1
AC50 [4]: 3.98 µM (inconclusive) | AC50 [5]: 2.51 µM (inconclusive) | AC50 [9]: 3.98 µM (inconclusive)

CN(C(=O)c1ccc(COc2ccccc2Br)o1)c1ccccc1
CC50 [8]: 22.1 µM (active)

CCc1cccc(NC(=O)c2cnn(-c3ccccc3)c2C)c1
CC50 [8]: 29.9 µM (active)

CC1CCN(C(=S)SCc2nc(N)nc(Nc3ccccc3)n2)CC1
CC50 [8]: 13.3 µM (active)

COc1cccc(OC)c1OCCCCN1CCCC1
AC50 [10]: 15.8 µM (inconclusive) | AC50 [9]: 14.1 µM (inconclusive) | IC50 [7]: 204 µM (active)

O=C(CSc1n[nH]c(-c2ccccc2)n1)c1ccccc1
EC50 [1]: 15.3 µM (active) | EC50 [2]: 6.22 µM (active) | EC50 [3]: 5.83 µM (active)

Cc1cccc(NC(=O)CSc2cc(C)c(C#N)c3nc4ccccc4n23)c1
EC50 [6]: 6.87 µM (active)

COc1ccccc1[C@@H]1C(c2cccc(Cl)c2)=NN(c2ccccc2)[C@H]1C(=O)N1CCOC1=O
CC50 [8]: 33.2 µM (active)

COC(=O)CCC(=O)Nc1cccc2ccccc12
AC50 [4]: 20 µM (inconclusive)

COc1cc(NC(=O)COC(=O)/C=C/c2ccc(O)c(OC)c2)cc(OC)c1
IC50 [7]: 51.7 µM (active)

CCNc1ccc(S(=O)(=O)N(C)C)cc1NCC(=O)Nc1ccccc1Br
EC50 [6]: > 260 µM (inactive)

Cc1ccc(S(=O)(=O)N2CCC(=O)N(C(COCc3cccc(C)c3)Cc3ccccc3)CC2)cc1 (stereo not drawn)
CC50 [8]: 28.7 µM (active)

CS(=O)(=O)Nc1cccc(-c2nccc(-n3ccnc3)n2)c1
AC50 [4]: 39.8 µM (inconclusive)

O=C1CN(c2ccccc2)C(=S)N1C(=O)c1ccccc1
EC50 [1]: 57.7 µM (active) | EC50 [2]: 15.7 µM (inconclusive) | EC50 [3]: 106 µM (active)

CC(C)(C)n1nc2c(c1NC(=O)c1cc([N+](=O)[O-])ccc1Cl)CS(=O)(=O)C2
EC50 [1]: 17.8 µM (active) | EC50 [2]: > 120 µM (not active) | EC50 [3]: 18.9 µM (active)

COc1ccc(-c2cc3ccc(OCC(C)=O)cc3oc2=O)cc1
EC50 [6]: > 260 µM (inactive)
